Assay results from US9708314B2, “Heterocyclic amide compound” (NISSAN CHEMICAL INDUSTRIES, LTD., priority 2013, dated 2017).

What was measured:
Type in all cases: in vivo
Veronica persica = test: Test Example 4: herbicidal effect by application to foliage (diluvial soil, plastic box); conditions: application to foliage, application herbicide amount 320 g/ha
Method in brief: (§1)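 Greenhouse plants (25° C. to 30° C., 14 d, diluvial soil) receive a foliar spray of water-diluted emulsifiable formulation at defined g/ha. Grading after 3 weeks uses a six-step herbicidal-ratio scale, with 4 covering 70% to <90% and 1 covering 5% to <20%.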

Lolium multiflorum Lam. = test: as above; conditions: application to foliage, application herbicide amount 320 g/ha
Method in brief: as §1

Chenopodium album = test: as above; conditions: application to foliage, application herbicide amount 320 g/ha
Method in brief: as §1

Setaria viridis = test: as above; conditions: application to foliage, application herbicide amount 320 g/ha
Method in brief: as §1

Apera spica-venti. = test: as above; conditions: application to foliage, application herbicide amount 320 g/ha
Method in brief: as §1

Alopecurus myosuroides = test: as above; conditions: application to foliage, application herbicide amount 320 g/ha
Method in brief: as §1

Digitaria ciliaris = test: as above; conditions: application to foliage, application herbicide amount 320 g/ha
Method in brief: as §1

Avena fatua = test: as above; conditions: application to foliage, application herbicide amount 320 g/ha
Method in brief: as §1

Galium spurium = test: as above; conditions: application to foliage, application herbicide amount 320 g/ha
Method in brief: as §1

Abutilon theophrasti = test: as above; conditions: application to foliage, application herbicide amount 320 g/ha
Method in brief: as §1

[1] = system: Echinochloa crus-galli var. crus-galli; test: as above; conditions: application to foliage, application herbicide amount 320 g/ha
Method in brief: as §1

[2] = system: Echinochloa oryzacola Vasing.; test: Test Example 1: herbicidal activity, application before weed generation in submerged conditions; conditions: Application herbicide amount 320 g/ha; Seventeenth Table
Method in brief: (§2)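 Water-diluted emulsion formulation is applied onto flood water (4 cm deep) covering alluvial soil on the day weed seeds are sown, after transplanting 2.5 leaf stage rice. Rates are expressed per hectare. Injury or control is graded 0–5 three weeks later.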

Scirpus juncoides = test: as above; conditions: Application herbicide amount 320 g/ha; Seventeenth Table
Method in brief: as §2

Monochoria vaginalis = test: as above; conditions: Application herbicide amount 320 g/ha; Seventeenth Table
Method in brief: as §2

Zea mays = test: Test Example 4: effect on crop by application to foliage (diluvial soil, plastic box); conditions: application to foliage, application herbicide amount 320 g/ha
Method in brief: as §1

Triticum aestivum = test: as above; conditions: application to foliage, application herbicide amount 320 g/ha
Method in brief: as §1

[3] = system: Beta vulgaris ssp. vulgaris; test: as above; conditions: application to foliage, application herbicide amount 320 g/ha
Method in brief: as §1

Glycine max = test: as above; conditions: application to foliage, application herbicide amount 320 g/ha
Method in brief: as §1

Brassica campestris L. = test: as above; conditions: application to foliage, application herbicide amount 320 g/ha
Method in brief: as §1

[4] = system: directly sowed Oryza sativa; test: as above; conditions: application to foliage, application herbicide amount 320 g/ha
Method in brief: as §1

[5] = system: transplanted Oryza sativa; test: Test Example 1: effect on crop, application before weed generation in submerged conditions; conditions: Application herbicide amount 320 g/ha; Seventeenth Table
Method in brief: as §2

| SMILES | R (Veronica persica) herbicidal effect (Veronica persica) | K (Lolium multiflorum Lam.) herbicidal effect (Lolium multiflorum Lam.) | O (Chenopodium album) herbicidal effect (Chenopodium album) | G (Setaria viridis) herbicidal effect (Setaria viridis) | L (Apera spica-venti.) herbicidal effect (Apera spica-venti.) | J (Alopecurus myosuroides) herbicidal effect (Alopecurus myosuroides) | F (Digitaria ciliaris) herbicidal effect (Digitaria ciliaris) | I (Avena fatua) herbicidal effect (Avena fatua) | Q (Galium spurium) herbicidal effect (Galium spurium) | M (Abutilon theophrasti) herbicidal effect (Abutilon theophrasti) | H (Echinochloa crus-galli var. crus-galli) herbicidal effect [1] | A: Echinochloa oryzicola Vasing. (herbicidal effect grade) [2] | B: Scirpus juncoides (herbicidal effect grade) (Scirpus juncoides) | C: Monochoria vaginalis (herbicidal effect grade) (Monochoria vaginalis) | b (Zea mays) effect on crop (Zea mays) | e (Triticum aestivum) effect on crop (Triticum aestivum) | f (Beta vulgaris ssp. vulgaris) effect on crop [3] | c (Glycine max) effect on crop (Glycine max) | g (Brassica campestris L.) effect on crop (Brassica campestris L.) | d (directly sowed Oryza sativa) effect on crop [4] | also measured |
| --- | --- | --- | --- | --- | --- | --- | --- | --- | --- | --- | --- | --- | --- | --- | --- | --- | --- | --- | --- | --- | --- |
| Cc1nnc(NC(=O)c2ccc(C(F)(F)F)n3c(CSCC(F)(F)F)nnc23)o1 [1-031] | 4 (Herbicidal ratio of 70% or more and less than 90%) | 1 (Herbicidal ratio of 5% or more and less than 20%) | 5 (Herbicidal ratio of 90% or more (almost completely withered)) | 4 (Herbicidal ratio of 70% or more and less than 90%) | 1 (Herbicidal ratio of 5% or more and less than 20%) | 1 (Herbicidal ratio of 5% or more and less than 20%) | 4 (Herbicidal ratio of 70% or more and less than 90%) | 2 (Herbicidal ratio of 20% or more and less than 40%) | 3 (Herbicidal ratio of 40% or more and less than 70%) | 5 (Herbicidal ratio of 90% or more (almost completely withered)) | 5 (Herbicidal ratio of 90% or more (almost completely withered)) | 4 (Herbicidal ratio of 70% or more and less than 90%) | 3 (Herbicidal ratio of 40% or more and less than 70%) | 3 (Herbicidal ratio of 40% or more and less than 70%) | 0 (Herbicidal ratio of 5% or less (almost no effect)) | 1 (Herbicidal ratio of 5% or more and less than 20%) | 3 (Herbicidal ratio of 40% or more and less than 70%) | 1 (Herbicidal ratio of 5% or more and less than 20%) | 3 (Herbicidal ratio of 40% or more and less than 70%) | 3 (Herbicidal ratio of 40% or more and less than 70%) | a: transplanted Oryza sativa (effect on crop grade) [5]: 0 (Herbicidal ratio of 5% or less (almost no effect)) |
| Cc1nnc(NC(=O)c2ccc(C(F)(F)F)n3c(-c4ccc(Cl)cc4)nnc23)o1 [1-017] | 4 (Herbicidal ratio of 70% or more and less than 90%) | 0 (Herbicidal ratio of 5% or less (almost no effect)) | 5 (Herbicidal ratio of 90% or more (almost completely withered)) | 0 (Herbicidal ratio of 5% or less (almost no effect)) | 0 (Herbicidal ratio of 5% or less (almost no effect)) | 0 (Herbicidal ratio of 5% or less (almost no effect)) | 3 (Herbicidal ratio of 40% or more and less than 70%) | 0 (Herbicidal ratio of 5% or less (almost no effect)) | 0 (Herbicidal ratio of 5% or less (almost no effect)) | 5 (Herbicidal ratio of 90% or more (almost completely withered)) | 5 (Herbicidal ratio of 90% or more (almost completely withered)) | 3 (Herbicidal ratio of 40% or more and less than 70%) | 2 (Herbicidal ratio of 20% or more and less than 40%) | 0 (Herbicidal ratio of 5% or less (almost no effect)) | 0 (Herbicidal ratio of 5% or less (almost no effect)) | 0 (Herbicidal ratio of 5% or less (almost no effect)) | 5 (Herbicidal ratio of 90% or more (almost completely withered)) | 0 (Herbicidal ratio of 5% or less (almost no effect)) | 3 (Herbicidal ratio of 40% or more and less than 70%) | 3 (Herbicidal ratio of 40% or more and less than 70%) | a: transplanted Oryza sativa (effect on crop grade) [5]: 0 (Herbicidal ratio of 5% or less (almost no effect)) |
